Reference: US7351861B2 (priority 2002, dated 2008)
Read-outs that look alike come from different tables or passages of the source.

How the values were obtained:
[1] = tested on: luciferase light signal from pIB102EL (yopE-luxAB, wild-type); assay: microbe, parasite or virus in culture; assay type: cell-based, Yersinia pseudotuberculosis; conditions: for inhibition at 5 µM / inhibition at 10 µM / inhibition at 20 µM / inhibition at 50 µM / inhibition at 100 µM: Yersinia pseudotuberculosis, read-out: Inhibition (%) of the luciferase light signal; for Inhibition (%) of the luciferase light signal: strain pIB102EL, Table 2C
[2] = tested on: luciferase light signal from pIB29EL (yopE-luxAB); assay: microbe, parasite or virus in culture; assay type: cell-based, Yersinia pseudotuberculosis; conditions: for Inhibition (%) of the luciferase light signal: strain pIB29EL, Table 2C; for IC50: read-out: IC50 (concentration resulting in 50% reduction of luciferase light emission)

Molecule	Inhibition (%) of the luciferase light signal ([1]; 5 μM)	Inhibition (%) of the luciferase light signal ([1]; 10 μM)	Inhibition (%) of the luciferase light signal ([1]; 20 μM)	Inhibition (%) of the luciferase light signal ([1]; 50 μM)	Inhibition (%) of the luciferase light signal ([1]; 100 μM)	Inhibition (%) of the luciferase light signal ([2]; 5 μM)	Inhibition (%) of the luciferase light signal ([2]; 10 μM)	Inhibition (%) of the luciferase light signal ([2]; 20 μM)	Inhibition (%) of the luciferase light signal ([2]; 50 μM)	Inhibition (%) of the luciferase light signal ([2]; 100 μM)	further results
NC(=O)C(=O)N/N=C/c1cc(Br)ccc1O [Compound 22]											inhibition at 5 µM [1]: 0%; inhibition at 10 µM [1]: 4%; inhibition at 20 µM [1]: 24%; inhibition at 50 µM [1]: 66%; inhibition at 100 µM [1]: 82%
O=C(N/N=C/c1ccc(O)c(O)c1O)c1ccco1 [Compound 34]											inhibition at 5 µM [1]: 1%; inhibition at 10 µM [1]: 5%; inhibition at 20 µM [1]: 10%; inhibition at 50 µM [1]: 26%; inhibition at 100 µM [1]: 56%
O=C(N/N=C/c1cc(Cl)cc(Cl)c1O)c1ccccc1 [Compound 35]	0%	0%	5%	21%	43%						
O=C(N/N=C/c1ccc(O)c(O)c1O)c1ccccc1 [Compound 36]	5%	10%	15%	24%	54%						
CCN(CC)c1ccc(/C=N/NC(=O)c2cccnc2)c(O)c1 [Compound 37]											inhibition at 5 µM [1]: 5%; inhibition at 10 µM [1]: 8%; inhibition at 20 µM [1]: 21%; inhibition at 50 µM [1]: 30%; inhibition at 100 µM [1]: 32%
O=C(N/N=C/c1ccc(O)cc1O)c1ccc([N+](=O)[O-])cc1 [Compound 38]	4%	10%	13%	23%	36%						
CC(=NNC(=O)c1cccnc1)c1cc(Br)cc(Br)c1O [Compound 39]	0%	3%	4%	13%	24%						
Nc1ccc(C(=O)N/N=C/c2cc(I)cc(I)c2O)cc1 [Compound 40]	3%	11%	18%	41%	50%						
O=C(N/N=C/c1cc(I)cc(I)c1O)c1ccc([N+](=O)[O-])cc1 [Compound 41]	3%	13%	33%	48%	44%						
O=C(N/N=C/c1cc(Br)ccc1O)c1cccnc1 [Compound 42]	0%	9%	16%	49%	59%						
CCOc1cccc(/C=N/NC(=O)c2ccc(Cl)cc2)c1O [Compound 43]	0%	6%	12%	22%	34%						
Nc1ccc(C(=O)N/N=C/c2c(O)ccc3ccccc23)cc1 [Compound 44]	3%	10%	15%	23%	30%						
O=C(Nc1ccc(SC(F)(F)F)cc1)c1cc2cc(Br)ccc2c(Br)c1O [Compound 53]						11%	38%	43%	58%	68%	
O=C(Nc1ccc(SC(F)(F)F)cc1)c1cccc(Cl)c1O [Compound 54]						41%	63%	86%	89%	87%	
O=C(Nc1ccc([N+](=O)[O-])cc1Cl)c1cc(Cl)ccc1O [Compound 55]						85%	96%	96%	94%	94%	
CC(=O)Oc1ccc(Cl)cc1C(=O)Nc1ccc([N+](=O)[O-])cc1Cl [Compound 56]						77%	90%	91%	91%	90%	
O=C(Nc1cccc(Cl)c1)c1cc(Cl)ccc1NS(=O)(=O)c1cccc2nsnc12 [Compound 57]						0%	7%	26%	49%	55%	
O=C(Nc1ccc(Cl)cc1)c1ccccc1NS(=O)(=O)c1cccc2nsnc12 [Compound 58]						4%	5%	10%	11%	15%	
O=C(Nc1ccc(Cl)c(Cl)c1)c1ccccc1NS(=O)(=O)c1cccc2nsnc12 [Compound 59]						0%	0%	0%	7%	10%	
CC(=O)Oc1ccccc1C(=O)Nc1ccc(Cl)cc1 [Compound 60]						0%	21%	65%	89%	89%	
NC(=O)C(=O)N/N=C/c1cc(Br)cc(Br)c1O [Compound 61]						7%	9%	19%	32%	55%	
CC(=O)Oc1ccc(I)cc1C(=O)Nc1ccc(Cl)cc1 [Compound 62]						95%	92%	91%	91%	90%	
CCn1cc(C(=O)O)c(=O)c2ccc(C)nc21 [Nalidixic acid, reference compound]											IC50 ([2]; Yersinia pseudotuberculosis): 15 µM; Inhibition of light-emission (in words) ([2]; known antibiotics, pIB29EL): dose-dependent inhibition of light-emission
[H]/N=C(/N)N[C@H]1[C@H](O)[C@@H](O)[C@H](O[C@@H]2O[C@@H](C)[C@](O)(C=O)[C@H]2O[C@@H]2O[C@@H](CO)[C@H](O)[C@@H](O)[C@@H]2NC)[C@@H](N/C(N)=N\[H])[C@@H]1O [Streptomycin, reference compound]											IC50 ([2]; Yersinia pseudotuberculosis): 4 µM; Inhibition of light-emission (in words) ([2]; known antibiotics, pIB29EL): dose-dependent inhibition of light-emission
Polymixin B [reference compound]											Inhibition of light-emission (in words) [2]: dose-dependent inhibition of light-emission; IC50 [2]: 0.15 µM
